Experimental data published in paper PMC6106931 (Alzheimer's Research & Therapy, 2018).

Experiments:
[1] = Clinical safety, Study ALZ1008; settings: Japanese preclinical AD
Description: Safety and tolerability were assessed during the study by recording adverse events (AEs), clinically significant abnormalities, clinical laboratory tests, ECG, and vital signs and by performing physical, neurological, and MRI examinations. All enrolled participants were included in the safety analysis population.

[2] = set-up: method as in PMID 29067308; settings: ALZ1002 Study; CV = 19%; cited from earlier work

C[C@@]1(c2cc(NC(=O)c3ccc(C#N)cn3)ccc2F)C=CSC(N)=N1 [atabecestat]
incidence of SAE [1]: no reported incidence of SAE
changes in QTcF ([1]; no changes from baseline > 30-ms): no clinically significant changes
oral clearance (CL/F), model-based estimate [2]: 10.5 L/h
